The record followed here is patent US6906083B2 (dated 2005).

Regarding `COc1cc2c(cc1OC)C(=O)C(F)(CC1CCNCC1)C2.Cl` (stereo not drawn), the melting point (commonly the temperature of the solid-liquid transition) is > 240 °C (dec.).

Consider `COc1cc2c(cc1OC)C(=O)C(F)(CC1CCN(C)CC1)C2.Cl` (stereo not drawn), for which the melting point was 215 to 220 °C (dec.).

On to `COc1cc2c(cc1OC)C(=O)C(F)(CC1CCN(CC(C)C)CC1)C2.Cl` (stereo not drawn), for which the melting point is 220 to 225 °C (dec.).
